How the values were obtained:
p53(Y220C) = target: T1, p53(Y220C) (Homo sapiens, UniProt P04637, Y220C); test: In vitro DNA binding assay (HTRF), His-p53 Y220C (94-294) with biotinylated p53 consensus DNA; assay type: biochemical; details: HTRF; 27 °C; His-p53 Y220C (94-294) 2.5 nM; biotinylated DNA 10 nM; normalized to 2 μM Ref-1a; EC50 = concentration at 50% Activation; read-out: p53(Y220C) EC50
T1 construct: His-p53 Y220C (94-294) protein
In short: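 His-p53 Y220C (94-294), 2.5 nM, preincubated with compound and anti-His-Tb cryptate 15 min at 25 °C then 60 min at 27 °C; 10 nM biotinylated consensus DNA with streptavidin-d2 added for 60 min more (HEPES pH 7.4, 75 mM KCl). HTRF 665/620 ratio, normalized to 2 μM Ref-1a high control; EC50 from 4-parameter fit.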

NUGC-3 (P53 Y220C) = test: Cell viability assay (CellTiter-Glo); assay type: cell-based; details: NUGC-3 cells, 6 days, 37 °C
Protocol: Cells were collected and counted. A desired number of cells was seeded into 96-well microplate and cultured in 37 °C cell incubator overnight. Compounds dissolved in cell culture medium were added into cell plate and cultured for 6 days. After balancing CellTiter-Glo reagent and cells at room temperature for 30 min, equal volume of CellTiter-Glo reagents was added to assay plate and shaken for 2 min for cell lysis. The cells were balanced at room temperature for 10 minutes and Luminescence signal was read using Envision. The percent of cell viability for compounds treated wells were normalized between High control and low control. Wells containing cell culture medium and same percentage DMSO served as Low control. Wells containing cells and same percentage DMSO served as High control. Cell viability (%)=(Luminescence readoutCompound treated−Luminescence readoutLow control)/(Luminescence readoutHigh control−Luminescence readoutLow control)*100%. Then the data were analyzed either by fitting a 4-parameter logistic model or by Excel to calculate IC50 values. And the IC50 was the concentration at […] Cell viability on the curve.

p53(Y220C)_NUGC-3 = p53(Y220C)_NUGC-3 (Homo sapiens, UniProt P04637, Y220C); test: Reporter gene assay (NUGC-3_P53_Luc cells); assay type: cell-based; details: 6 hours, 37 °C, luciferase, normalized to Ref-1a 10 μM, EC50 = concentration at 50% Activity, read-out: p53(Y220C)_NUGC-3 EC50
Protocol: NUGC-3_P53_Luc single clonal cell line was established using pGL4.38[luc2P/p53 RE/Hygro] Vector (E365A, promega). NUGC-3_P53_Luc single clonal cells were cultured in 37 °C cell incubator before use. NUGC-3_P53_Luc cells were collected and washed twice with PBS to remove phenol red and then resuspended in medium to a proper concentration. Tested compound dilutions were transferred into 384 well assay plates (PerkinElmer). A desired number of cells was seeded into the assay plate and cultured for 6 hours at 37 °C cell incubator. Britelite plus Luciferase Assay Reagent were added into each well and the luminescence value was recorded on Envision. The percent of activity value of compounds treated wells was normalized between high control and low control. Wells containing cells and Ref-la (10 μM) served as high control, and wells containing cells and same percentage of DMSO served as low control. Activity value (%)=(Luminescence readoutCompound treated−Luminescence readoutLow control)/(Luminescence readoutHigh control−Luminescence readoutLow control)*100%. Then the data were analyzed either by fitting a 4-parameter logistic model or by Excel to calculate EC50 values and the EC50 was the concentration at 50% Activity on the curve.

Row | EC50 (p53(Y220C)) | EC50 (p53(Y220C)_NUGC-3) | SMILES | IC50 (NUGC-3 (P53 Y220C); Homo sapiens, 144 h) | IC50 (NUGC-3 (P53 Y220C))
1 | 25 nM | 76 nM | COc1cc([S@@](=N)(=O)C2COC2)ccc1NCC#Cc1sc2c(N[C@@H]3CCN(C)C[C@@H]3F)cccc2c1CC(F)(F)F [Example 50, (S)-(4-((3-(7-(((3S,4R)-3-fluoro-1-methylpiperidin-4-yl)amino)-3-(2,2,2-trifluoroethyl)benzo[b]thiophen-2-yl)prop-2-yn-1-yl)amino)-3-methoxyphenyl)(imino)(oxetan-3-yl)-16-sulfanone] | 1080 nM | –
2 | 39 nM | 128 nM | COc1cc([S@](=N)(=O)C2CC2)ccc1NCC#Cc1sc2c(N[C@@H]3CCN(C)C[C@@H]3F)cccc2c1CC(F)(F)F [Example 53, (R)-cyclopropyl(4-((3-(7-(((3S,4R)-3-fluoro-1-methylpiperidin-4-yl)amino)-3-(2,2,2-trifluoroethyl)benzo[b]thiophen-2-yl)prop-2-yn-1-yl)amino)-3-methoxyphenyl)(imino)-16-sulfanone] | – | 680 nM
3 | 58 nM | 143 nM | COc1cc([S@@](=N)(=O)C2CC2)ccc1NCC#Cc1sc2c(N[C@@H]3CCN(C)C[C@@H]3F)cccc2c1CC(F)(F)F [Example 54, (S)-cyclopropyl(4-((3-(7-(((3S,4R)-3-fluoro-1-methylpiperidin-4-yl)amino)-3-(2,2,2-trifluoroethyl)benzo[b]thiophen-2-yl)prop-2-yn-1-yl)amino)-3-methoxyphenyl)(imino)-16-sulfanone] | – | 1050 nM
4 | 31 nM | 196 nM | CN1CC[C@@H](Nc2cccc3c(CC(F)(F)F)c(C#CCNc4ccc(P(C)(C)=O)c5c4C(=O)NC5)sc23)[C@@H](F)C1 [Example 55, 4-(dimethylphosphoryl)-7-((3-(7-(((3S,4R)-3-fluoro-1-methylpiperidin-4-yl)amino)-3-(2,2,2-trifluoroethyl)benzo[b]thiophen-2-yl)prop-2-yn-1-yl)amino)isoindolin-1-one] | 1290 nM | –
5 | 45 nM | 61 nM | [2H]C([2H])([2H])Oc1nc(P(C)(C)=O)ccc1NCC#Cc1sc2c(N[C@@H]3CCN(C)C[C@@H]3F)cccc2c1CC(F)(F)F [Example 56, (5-((3-(7-(((3S,4R)-3-fluoro-1-methylpiperidin-4-yl)amino)-3-(2,2,2-trifluoroethyl)benzo[b]thiophen-2-yl)prop-2-yn-1-yl)amino)-6-(methoxy-d3)pyridin-2-yl)dimethylphosphine oxide] | 430 nM | –
6 | 37 nM | 164 nM | COc1c(NCC#Cc2sc3c(N[C@@H]4CCN(C)C[C@@H]4F)cccc3c2CC(F)(F)F)ccc(P(C)(C)=O)c1OC [Example 57, (4-((3-(7-(((3S,4R)-3-fluoro-1-methylpiperidin-4-yl)amino)-3-(2,2,2-trifluoroethyl)benzo[b]thiophen-2-yl)prop-2-yn-1-yl)amino)-2,3-dimethoxyphenyl)dimethylphosphine oxide] | 790 nM | –
7 | 35 nM | 44 nM | COc1cc([S@@](C)(=N)=O)ccc1NCC#Cc1sc2c(N[C@H]3CCN(C)C[C@@H]3F)cccc2c1[C@@H](O)C(F)(F)F [Example 58, (S)-(4-((3-(7-(((3S,4S)-3-fluoro-1-methylpiperidin-4-yl)amino)-3-((R)-2,2,2-trifluoro-1-hydroxyethyl)benzo[b]thiophen-2-yl)prop-2-yn-1-yl)amino)-3-methoxyphenyl)(imino)(methyl)-16-sulfanone] | 400 nM | –
8 | 109 nM | 266 nM | COc1cc([S@@](C)(=N)=O)ccc1NCC#Cc1sc2c(N[C@@H]3CCN(C)C[C@H]3F)cccc2c1[C@@H](O)C(F)(F)F [Example 59, (S)-(4-((3-(7-(((3R,4R)-3-fluoro-1-methylpiperidin-4-yl)amino)-3-((R)-2,2,2-trifluoro-1-hydroxyethyl)benzo[b]thiophen-2-yl)prop-2-yn-1-yl)amino)-3-methoxyphenyl)(imino)(methyl)-16-sulfanone] | 2060 nM | –
9 | 74 nM | 281 nM | COc1cc([S@@](C)(=N)=O)ccc1NCC#Cc1sc2c(N[C@@H]3CCN(C)C[C@@H]3F)cccc2c1[C@@H](O)C(F)(F)F [Example 60, (S)-(4-((3-(7-(((3S,4R)-3-fluoro-1-methylpiperidin-4-yl)amino)-3-((R)-2,2,2-trifluoro-1-hydroxyethyl)benzo[b]thiophen-2-yl)prop-2-yn-1-yl)amino)-3-methoxyphenyl)(imino)(methyl)-16-sulfanone] | – | 1800 nM
10 | 36 nM | 78 nM | COc1cc([S@@](C)(=N)=O)ccc1NCC#Cc1sc2c(N[C@H]3CCN(C)C[C@H]3F)cccc2c1[C@@H](O)C(F)(F)F [Example 61, (S)-(4-((3-(7-(((3R,4S)-3-fluoro-1-methylpiperidin-4-yl)amino)-3-((R)-2,2,2-trifluoro-1-hydroxyethyl)benzo[b]thiophen-2-yl)prop-2-yn-1-yl)amino)-3-methoxyphenyl)(imino)(methyl)-16-sulfanone] | 380 nM | –

Source: patent US20260374794A1, “COMPOUNDS TARGETING MUTANT OF P53” (JACOBIO PHARMACEUTICALS CO., LTD., priority 2022, published 2026)
